The test is described as follows: Binding affinity to LPS by fluorescence-based displacement assay.
Regarding `NCCCNCCCCNCCCNS(=O)(=O)c1ccc(C(F)(F)F)cc1`, the ED50 was 884 µM. As for `CCCCCCCCCCCCCCCCS(=O)(=O)NCCCNCCCCNCCCN`, the ED50 was determined as 2 µM. In the case of `CCCCCCCCS(=O)(=O)NCCCNCCCCNCCCN`, the ED50 was found to be 5 µM. The value for `CCCCCCCCCCCCCCCCCCS(=O)(=O)NCCCNCCCCNCCCN` was 6 µM; that for `NCCCNCCCCNCCCNS(=O)(=O)c1ccc(Br)cc1Br` was 2110 µM. Compound `NCCCNCCCCNCCCNS(=O)(=O)c1ccc(Cl)c(C(F)(F)F)c1` came in with an ED50 of 21 µM.

Take `CCCCCCCCCCCCS(=O)(=O)NCCCNCCCCNCCCN`: the ED50 came out at 3 µM. In turn, `CCCCOc1ccc(CC(C)(C)C)cc1S(=O)(=O)NCCCNCCCCNCCCN` came in with an ED50 of 4 µM.

Turning to `CC1(C)C2CCC1(CS(=O)(=O)NCCCNCCCCNCCCN)C(=O)C2` (centres undefined), the ED50 stood at 1680 µM.

Regarding `CC(C)(C)c1ccc(S(=O)(=O)NCCCNCCCCNCCCN)cc1`, the ED50 was found to be 25 µM. The compound `NCCCNCCCCNCCCNS(=O)(=O)c1cccc2ccccc12` gave an ED50 of 34 µM. With `NCCCNCCCCNCCCNS(=O)(=O)c1cc(Cl)c(Cl)cc1Cl` the figure was 19 µM. `NCCCNCCCCNCCCNS(=O)(=O)c1ccc(Cl)c(Cl)c1Cl` had an ED50 of 9 µM. With `CCCCS(=O)(=O)NCCCNCCCCNCCCN`, the ED50 was over 10000 µM.

Compound `NCCCNCCCCNCCCNS(=O)(=O)c1ccc(Cl)cc1` showed an ED50 of 158 µM. `CCCCCCCCCCS(=O)(=O)NCCCNCCCCNCCCN` yielded an ED50 of 3 µM.

`NCCCNCCCCNCCCNS(=O)(=O)c1cccc2cccnc12` came in with an ED50 of 4880 µM. In turn, `NCCCNCCCCNCCCNS(=O)(=O)c1ccc(Cl)cc1Cl` returned an ED50 of 56 µM. With `NCCCNCCCCNCCCNS(=O)(=O)c1ccccc1`, the ED50 worked out at 2960 µM.
